BindingDB's records for patent US20260055079 (Azkarra Therapeutics, 2026)
Blank lines part the entries; values can stand above or below the compound they belong to.

How the values were obtained:
[1] = target: Poly [ADP-ribose] polymerase 2 (Homo sapiens, UniProt Q9UGN5); assay: Protocol for the PARP1 and PARP2 Biochemical Assays
Description: (§1) Each wash was incubated for 3 min. After washing, varying concentrations of each inhibitor was pre-incubated with 20 μM (2×) 6-a-NAD+. 25 μL of the 2×6-a-NAD+/inhibitor mixture was added to the plate with 25 μL of 20 nM of PARP1 or PARP2 in PBR with 0.1 mg/mL Activated DNA (Sigma). PARP final concentration 10 nM. The reaction mixture was incubated at 30° C. for 1 h. The plate was then washed 3 time with PBST and once with PBS. The wells were subjected to a 50 μL click reaction consisting of 100 μM TBTA, 1 mM CuSO4. 100 μM Biotin-N3, 2 mM TCEP made up in 1×PBS at RT for 30 min. The plate was then washed 3 times with PBST before blocking in 100 μL of 1% Milk (Carnation) in PBST at RT for 30 min. The plate was again washed 3 times with PBST and once with PBS before incubation with Strep-HRP (0.05 ng/μL Strep-HRP (Fisher Scientific), 300 ng/μL BSA, 1×PBS) for 30 min at RT. The plate was washed 3 time in PBST and once with PBS before development with QuantaRed (Pierce) per manufacturer directions.

[2] = target: T1, Protein mono-ADP-ribosyltransferase TIPARP (Homo sapiens, UniProt Q7Z3E1); assay: PARP7 Biochemical Assay
T1 sequence (Q7Z3E1 whole entry): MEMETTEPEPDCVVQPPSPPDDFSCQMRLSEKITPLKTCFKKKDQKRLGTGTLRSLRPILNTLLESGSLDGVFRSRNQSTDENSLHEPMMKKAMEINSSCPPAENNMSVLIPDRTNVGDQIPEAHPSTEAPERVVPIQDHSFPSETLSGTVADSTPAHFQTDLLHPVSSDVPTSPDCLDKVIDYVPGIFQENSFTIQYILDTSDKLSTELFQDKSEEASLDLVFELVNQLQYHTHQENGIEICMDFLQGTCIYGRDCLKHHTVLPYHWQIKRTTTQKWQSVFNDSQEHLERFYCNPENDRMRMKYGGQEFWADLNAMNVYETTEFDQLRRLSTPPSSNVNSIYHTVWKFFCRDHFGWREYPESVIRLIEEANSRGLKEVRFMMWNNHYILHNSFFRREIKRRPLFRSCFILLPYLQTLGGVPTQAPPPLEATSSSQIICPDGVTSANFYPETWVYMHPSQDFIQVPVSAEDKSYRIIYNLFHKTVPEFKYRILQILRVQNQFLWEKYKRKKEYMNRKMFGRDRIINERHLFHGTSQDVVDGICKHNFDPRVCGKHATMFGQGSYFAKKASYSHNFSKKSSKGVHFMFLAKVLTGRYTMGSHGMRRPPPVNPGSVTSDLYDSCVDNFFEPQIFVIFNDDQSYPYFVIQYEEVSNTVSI
Description: 23 μL of 100 nM His-GST-PARP7 in PARP buffer for reaction (PBR) (50 mM HEPES pH 7.5, 100 mM NaCl, 4 mM MgCl2, 0.2 mM TCEP) was added to each well of XpressBio GSH-coated 384 well plates and incubated for 1 h at RT. The plate was then washed for 3 times in 50 μL PBST (1×PBS, 0.02% Tween-20), followed by one wash in 1×PBS and one wash PBR. Each wash was incubated for 3 min. After washing, varying concentrations of each inhibitor was pre-incubated with 20 μM (2×) 6-a-NAD+. The solution was added to the plate, diluted to 1× in PBR, and incubated at 30° C. for 90 min. Following the enzymatic reaction, the plate was washed 3 times in PBST, once in PBS for 3 min each wash. The wells were then subjected to 25 μL of click reaction buffer consisting of 100 μM TBTA, 1 mM CuSO4, 100 μM Biotin-N3, 2 mM TCEP made up in 1×PBS. The wells were incubated in click reaction buffer for 30 min at 30° C. The click buffer was removed, and the plate was washed 3 times with PBST and once with PBS as before. The plate was then blocked with 5% BSA in PBST. The plate was then washed 3 times with PBST and once with PBS. To develop, the plate was incubated with 25 μL of 0.05 ng/μL Step-HRP with 0.02% BSA in PBS. The plate was washed 3 times with PBS before developing with QuantaRed per manufacturer directions. Fluorescence (Excitation 550 nm. Emission 620 nm) was immediately read using a Paradigm Plate Reader.

[3] = target: Poly [ADP-ribose] polymerase 1 (Homo sapiens, UniProt P09874); assay: Protocol for the PARP1 and PARP2 Biochemical Assays
Description: as §1

Poly [ADP-ribose] polymerase 2, sequence (Q9UGN5 whole entry): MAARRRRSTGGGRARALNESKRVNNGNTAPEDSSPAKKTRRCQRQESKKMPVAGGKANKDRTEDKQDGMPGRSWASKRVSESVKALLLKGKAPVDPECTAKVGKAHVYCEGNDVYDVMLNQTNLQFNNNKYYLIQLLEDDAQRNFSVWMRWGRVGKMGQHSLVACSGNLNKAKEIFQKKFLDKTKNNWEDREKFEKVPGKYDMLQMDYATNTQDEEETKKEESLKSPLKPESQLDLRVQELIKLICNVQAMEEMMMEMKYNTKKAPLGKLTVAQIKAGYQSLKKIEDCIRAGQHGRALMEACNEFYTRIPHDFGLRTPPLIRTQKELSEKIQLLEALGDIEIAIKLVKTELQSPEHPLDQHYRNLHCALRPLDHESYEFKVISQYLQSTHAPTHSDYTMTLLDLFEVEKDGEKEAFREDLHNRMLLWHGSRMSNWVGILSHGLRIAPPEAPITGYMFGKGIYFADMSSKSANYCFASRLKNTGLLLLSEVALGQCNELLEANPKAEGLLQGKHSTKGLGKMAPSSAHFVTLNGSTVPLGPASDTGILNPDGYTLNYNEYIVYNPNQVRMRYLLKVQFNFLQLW
Poly [ADP-ribose] polymerase 1, sequence (P09874 whole entry): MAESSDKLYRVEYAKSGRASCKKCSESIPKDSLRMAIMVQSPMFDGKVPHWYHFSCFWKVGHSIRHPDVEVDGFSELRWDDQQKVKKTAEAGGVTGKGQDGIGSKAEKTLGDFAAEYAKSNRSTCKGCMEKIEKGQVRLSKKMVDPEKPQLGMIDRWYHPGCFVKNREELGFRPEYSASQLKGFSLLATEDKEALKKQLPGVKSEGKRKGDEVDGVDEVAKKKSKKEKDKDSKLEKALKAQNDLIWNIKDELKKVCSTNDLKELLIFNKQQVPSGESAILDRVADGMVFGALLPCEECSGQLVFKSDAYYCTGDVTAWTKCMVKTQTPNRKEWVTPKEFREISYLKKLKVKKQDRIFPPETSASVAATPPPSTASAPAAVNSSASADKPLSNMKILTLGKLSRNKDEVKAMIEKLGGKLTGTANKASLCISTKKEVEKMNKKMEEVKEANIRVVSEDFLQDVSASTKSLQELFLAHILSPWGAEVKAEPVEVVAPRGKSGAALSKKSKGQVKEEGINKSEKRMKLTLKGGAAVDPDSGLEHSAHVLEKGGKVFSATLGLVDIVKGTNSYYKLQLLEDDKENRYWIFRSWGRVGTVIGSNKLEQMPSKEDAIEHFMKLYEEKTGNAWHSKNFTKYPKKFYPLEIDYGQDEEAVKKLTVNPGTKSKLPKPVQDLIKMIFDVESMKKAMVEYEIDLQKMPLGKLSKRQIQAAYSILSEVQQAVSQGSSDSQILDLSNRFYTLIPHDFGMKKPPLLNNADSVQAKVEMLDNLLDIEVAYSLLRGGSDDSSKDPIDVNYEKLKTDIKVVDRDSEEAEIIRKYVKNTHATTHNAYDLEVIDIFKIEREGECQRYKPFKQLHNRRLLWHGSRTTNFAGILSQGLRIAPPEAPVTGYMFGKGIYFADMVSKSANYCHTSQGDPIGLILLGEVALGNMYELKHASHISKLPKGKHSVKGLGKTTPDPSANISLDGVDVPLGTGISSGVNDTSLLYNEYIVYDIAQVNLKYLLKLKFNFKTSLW

Compound: N#Cc1ccc(N2CCN(C(=O)c3cc(Cc4n[nH]c(=O)c5ccc(/C=C/C(F)(F)F)cc45)ccc3F)CC2)nc1 [US20260055079, Example 27]
IC50 [2]: < 50 nM

Compound: N#Cc1ccc(N2CCN(C(=O)c3cc(Cc4n[nH]c(=O)c5ccc(CCC(F)(F)F)cc45)ccc3F)CC2)nc1 [US20260055079, Example 25]
IC50 [2]: < 50 nM

Other lines, results leading:

IC50 [1]: > 2000 nM
Compound: CC#Cc1ccc2c(=O)[nH]nc(Cc3ccc(F)c(C(=O)N4CCN(c5ncc(C(F)(F)F)cn5)CC4)c3)c2c1 [US20260055079, Example 48]

IC50 [2]: < 50 nM
IC50 [3]: > 2000 nM
IC50 [1]: > 2000 nM
Compound: N#Cc1cnc(N2CCN(C(=O)c3cc(Cc4n[nH]c(=O)c5ccc(OC6CCC6)cc45)ccc3F)CC2)cc1C(F)(F)F [US20260055079, Example 132]

IC50 [2]: < 50 nM
Compound: CCc1ccc2c(=O)[nH]nc(Cc3ccc(F)c(C(=O)N4CCN(c5ncc(C(F)(F)F)cn5)CC4)c3)c2c1 [US20260055079, Example 43]
